Like-named read-outs stand apart in the source and are kept apart here.
Legend:
[1] = tested on: human cryopreserved hepatocytes; experiment: Metabolic stability (hepatocytes); conditions: human cryopreserved hepatocytes
Method: The metabolic stability of compounds was evaluated in human cryopreserved hepatocytes (BioreclamationlVT, NY, USA) in duplicate. Test articles (or controls) were added to a 24-well incubation plate (Becton Dickinson Labware, USA) containing 0.5×10^6 hepatocytes/mL in suspension. The plate was held at 37° C. and agitated with constant orbital shaking (orbital speed at 350 rpm). At each time point (0, 5, 10, 15, 20, 30, 45, 60, 90, 120, 150 and 180 min) a Tecan Evo robot aspirated 50 μL of the incubation mixture and 100 μL of acetonitrile containing internal standard to quench the reaction. […] Samples were centrifuged (3000 rpm for 10 minutes) and the plate sealed prior to injection onto an LC-MS/MS system.
The appropriate parent/daughter ions were monitored for the test article and IS with the LC-MS/MS system. The intrinsic clearance (Clint; expressed μL/min/million cells) was determined from the first order elimination constant (k, min^−1) of test article decay and the volume of the incubation. […] The intrinsic organ CL was then converted to the hepatic clearance (CLhep) using the well-stirred model as shown below, where Qh is human hepatic blood flow.
Hepatic clearance is expressed as mL/min/kg. The hepatic clearance relates to the flow of blood through the liver that is completely cleared of the compound.

GST-hRIPK1 (8-327) = GST-hRIPK1 (8-327) (Homo sapiens (Human), UniProt Q13546); experiment: Fluorescent Polarization Binding (FP Binding) assay
[2] = tested on: FADD-deficient Jurkat cells; experiment: Cellular necroptosis assay (human TNFα-induced necrosis, CellTiter-Glo); format: cell-based; conditions: 48 h, TNFα 10 ng/mL, read-out: Cell IC50

Chain of GST-hRIPK1 (8-327) (Q13546 8-327): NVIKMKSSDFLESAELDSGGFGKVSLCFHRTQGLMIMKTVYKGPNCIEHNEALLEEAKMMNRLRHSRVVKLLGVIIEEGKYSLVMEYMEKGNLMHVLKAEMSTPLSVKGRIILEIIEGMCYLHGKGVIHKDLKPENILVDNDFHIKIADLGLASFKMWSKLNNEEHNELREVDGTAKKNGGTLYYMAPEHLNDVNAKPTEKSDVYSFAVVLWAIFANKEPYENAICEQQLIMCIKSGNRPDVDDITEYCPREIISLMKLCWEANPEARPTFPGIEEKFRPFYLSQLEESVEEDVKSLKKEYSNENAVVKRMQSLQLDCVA

Row | Compound | Human hepatocyte CLhep Avg [1] [mL/min/kg] | IC50 (GST-hRIPK1 (8-327)) [nM] | IC50 ([2]; Homo sapiens, Jurkat) [nM] | IC50 [2] [nM]
1 | CN1C(=O)[C@@H](NC(=O)c2cc(C3(c4ccccc4)CC3)on2)COc2cccnc21 [Example 77, (S)—N-(5-methyl-4-oxo-2,3,4,5-tetrahydropyrido[3,2-b][1,4]oxazepin-3-yl)-5-(1-phenylcyclopropyl)isoxazole-3-carboxamide] | 19 |  |  | 
2 | CN1C(=O)[C@@H](NC(=O)c2cc(Cc3ccccc3)on2)COc2cccnc21 [Example 142, (S)-5-Benzyl-N-(5-methyl-4-oxo-2,3,4,5-tetrahydropyrido[3,2-b][1,4]oxazepin-3-yl)isoxazole-3-carboxamide] | 16 | 0.1 to 1000 |  | 
3 | CN1C(=O)[C@@H](NC(=O)c2nnc(Cc3ccccc3)o2)CCc2cccnc21 [Example 148A, (S)-5-benzyl-N-(9-methyl-8-oxo-6,7,8,9-tetrahydro-5H-pyrido[2,3-b]azepin-7-yl)-1,3,4-oxadiazole-2-carboxamide] | 12 | 0.1 to 1000 |  | 
4 | N#Cc1cccc(Cc2nnc(C(=O)N[C@@H]3C(=O)Nc4c(F)cc(F)cc4[C@@H]4C[C@H]34)[nH]2)c1 [Example 181B, 5-(3-cyanobenzyl)-N-((1aS,2S,8bR)-5,7-difluoro-3-oxo-1,1a,2,3,4,8b-hexahydrobenzo[b]cyclopropa[d]azepin-2-yl)-4H-1,2,4-triazole-3-carboxamide] |  | 0.1 to 1000 | 0.1 to 1000 | 
5 | Cc1ncccc1Cn1cc(F)c(C(=O)N[C@H]2CCc3nccnc3N(C)C2=O)n1 [Example 182B, (S)-4-fluoro-N-(5-methyl-6-oxo-6,7,8,9-tetrahydro-5H-pyrazino[2,3-b]azepin-7-yl)-1-((2-methylpyridin-3-yl)methyl)-1H-pyrazole-3-carboxamide] |  | 0.1 to 1000 | 0.1 to 1000 | 
6 | CN1C(=O)[C@@H](NC(=O)c2cc(Cc3ccccc3)on2)CCc2nccnc21 [Example 188, (S)-5-benzyl-N-(5-methyl-6-oxo-6,7,8,9-tetrahydro-5H-pyrazino[2,3-b]azepin-7-yl)isoxazole-3-carboxamide] |  | 0.1 to 1000 | 0.1 to 1000 | 
7 | C[C@H]1Oc2cccnc2N(C)C(=O)[C@H]1NC(=O)c1ncc(Cc2ccccc2)o1 [Example 192, 5-benzyl-N-((2R,3S)-2,5-dimethyl-4-oxo-2,3,4,5-tetrahydropyrido[3,2-b][1,4]oxazepin-3-yl)oxazole-2-carboxamide] |  | 0.1 to 1000 | 0.1 to 1000 | 
8 | Cc1nc2c(s1)CC[C@H](NC(=O)c1nnc(Cc3ccccc3)o1)C(=O)N2C [Example 200, (S)-5-benzyl-N-(2,4-dimethyl-5-oxo-5,6,7,8-tetrahydro-4H-thiazolo[4,5-b]azepin-6-yl)-1,3,4-oxadiazole-2-carboxamide] |  | 0.1 to 1000 | 0.1 to 1000 | 
9 | CN1C(=O)[C@@H](NC(=O)c2cn(Cc3ccccc3)nn2)COc2cccnc21 [Example 201, (S)-1-benzyl-N-(5-methyl-4-oxo-2,3,4,5-tetrahydropyrido[3,2-b][1,4]oxazepin-3-yl)-1H-1,2,3-triazole-4-carboxamide] |  | 0.1 to 1000 | 0.1 to 1000 | 
10 | C[C@H]1Oc2cccnc2N(C)C(=O)[C@H]1NC(=O)c1cn(Cc2ccccc2)nn1 [Example 203, 1-benzyl-N-((2R,3S)-2,5-dimethyl-4-oxo-2,3,4,5-tetrahydropyrido[3,2-b][1,4]oxazepin-3-yl)-1H-1,2,3-triazole-4-carboxamide] |  | 0.1 to 1000 | 0.1 to 1000 | 
11 | [2H]C([2H])([2H])N1C(=O)[C@@H](NC(=O)c2nn(Cc3ccccc3)cc2F)[C@H]2C[C@H]2c2cc(C#N)ccc21 [Example 206, 1-benzyl-N-((1aS,2S,8bR)-7-cyano-4-trideuteriomethyl-3-oxo-1,1a,2,3,4,8b-hexahydrobenzo[b]cyclopropa[d]azepin-2-yl)-4-fluoro-1H-pyrazole-3-carboxamide] |  | 0.1 to 1000 | 0.1 to 1000 | 
12 | (S)-1-(2-cyanobenzyl)-4-fluoro-N-(5-methyl-4-oxo-2,3,4,5-tetrahydropyrido[3,2-b][1,4]oxazepin-3-yl)-1H-pyrazole-3-carboxamide [Example 153] |  | 0.1 to 1000 |  | 0.1 to 1000
